# Experimental data: ChEMBL document CHEMBL3885881, “DrugMatrix”
# Organism: Rattus norvegicus
# Assay: DrugMatrix - Regimen: Daily Repeat
# Format: toxicity, organism-based, Sprague-Dawley
# Design: regimen Daily Repeat, gender Male, age 6-8 weeks
# Conditions: in vivo, po, route oral GAVAGE, […]; for ABSOLUTE BASOPHIL / ABSOLUTE EOSINOPHIL / ABSOLUTE LYMPHOCYTE / ABSOLUTE MONOCYTE / ABSOLUTE SEGMENTED NEUTROPHIL / BASOPHIL / EOSINOPHIL / ERYTHROCYTE COUNT / HEMATOCRIT / HEMOGLOBIN / LEUKOCYTE COUNT / LYMPHOCYTE / MEAN CORPUSCULAR HEMOGLOBIN / MEAN CORPUSCULAR HEMOGLOBIN CONCENTRATION / MEAN CORPUSCULAR VOLUME / MONOCYTE / NEUTROPHIL / NUCLEATED RED BLOOD CELLS / PLATELET COUNT: tissue Blood; for ALANINE AMINOTRANSFERASE / ALBUMIN / ALKALINE PHOSPHATASE / ASPARTATE AMINOTRANSFERASE / BLOOD UREA NITROGEN / CARBON DIOXIDE / CHLORIDE / CHOLESTEROL / CREATINE PHOSPHOKINASE / CREATININE / GLUCOSE / LACTATE DEHYDROGENASE / LIPASE / PHOSPHORUS / POTASSIUM / SODIUM / TOTAL BILIRUBIN / TOTAL PROTEIN / URIC ACID: tissue Plasma
# [1] = 10 mg/kg, 72 h, dose level Low, time 3 day
# [2] = 10 mg/kg, 120 h, dose level Low, time 5 day
# [3] = 1200 mg/kg, 72 h, dose level High, time 3 day
# [4] = 1200 mg/kg, 120 h, dose level High, time 5 day
compound,measurement,setting,value
COC(=O)Nc1nc2cc(C(=O)c3ccc(F)cc3)ccc2[nH]1 [FLUBENDAZOLE],ABSOLUTE BASOPHIL,[1],0 CELLS/uL
same,ABSOLUTE EOSINOPHIL,[1],47.67 CELLS/uL
same,ABSOLUTE LYMPHOCYTE,[1],13609.33 CELLS/uL
same,ABSOLUTE MONOCYTE,[1],47.67 CELLS/uL
same,ABSOLUTE SEGMENTED NEUTROPHIL,[1],1162 CELLS/uL
same,BASOPHIL,[1],0%
same,EOSINOPHIL,[1],0.33%
same,ERYTHROCYTE COUNT,[1],5.56 x10E6/uL
same,HEMATOCRIT,[1],35.83%
same,HEMOGLOBIN,[1],14.1 G/DL
same,LEUKOCYTE COUNT,[1],14.87 x10E3/uL
same,LYMPHOCYTE,[1],91.33%
same,MEAN CORPUSCULAR HEMOGLOBIN,[1],25.37 pg
same,MEAN CORPUSCULAR HEMOGLOBIN CONCENTRATION,[1],39.33 G/DL
same,MEAN CORPUSCULAR VOLUME,[1],64.4 fL
same,MONOCYTE,[1],0.33%
same,NEUTROPHIL,[1],8%
same,NUCLEATED RED BLOOD CELLS,[1],0 /100WBC
same,PLATELET COUNT,[1],1248.33 x10E3/uL
same,ALANINE AMINOTRANSFERASE,[1],66.33 u/L
same,ALBUMIN,[1],4.3 G/DL
same,ALKALINE PHOSPHATASE,[1],384.67 u/L
same,ASPARTATE AMINOTRANSFERASE,[1],89 u/L
same,BLOOD UREA NITROGEN,[1],14.67 mg/dL
same,CARBON DIOXIDE,[1],28.67 mmol/L
same,CHLORIDE,[1],103.67 MEQ/L
same,CHOLESTEROL,[1],73 mg/dL
same,CREATINE PHOSPHOKINASE,[1],180.67 u/L
same,CREATININE,[1],0.2 mg/dL
same,GLUCOSE,[1],149.33 mg/dL
same,LACTATE DEHYDROGENASE,[1],206 u/L
same,LIPASE,[1],10.67 u/L
same,PHOSPHORUS,[1],13.07 mg/dL
same,POTASSIUM,[1],6.75 MEQ/L
same,SODIUM,[1],148 MEQ/L
same,TOTAL BILIRUBIN,[1],0.17 mg/dL
same,TOTAL PROTEIN,[1],5.6 G/DL
same,URIC ACID,[1],2.37 mg/dL
same,ABSOLUTE BASOPHIL,[2],0 CELLS/uL
same,ABSOLUTE EOSINOPHIL,[2],0 CELLS/uL
same,ABSOLUTE LYMPHOCYTE,[2],11922.67 CELLS/uL
same,ABSOLUTE MONOCYTE,[2],87 CELLS/uL
same,ABSOLUTE SEGMENTED NEUTROPHIL,[2],723.67 CELLS/uL
same,BASOPHIL,[2],0%
same,EOSINOPHIL,[2],0%
same,ERYTHROCYTE COUNT,[2],5.65 x10E6/uL
same,HEMATOCRIT,[2],34.27%
same,HEMOGLOBIN,[2],13.7 G/DL
same,LEUKOCYTE COUNT,[2],12.73 x10E3/uL
same,LYMPHOCYTE,[2],93.67%
same,MEAN CORPUSCULAR HEMOGLOBIN,[2],24.3 pg
same,MEAN CORPUSCULAR HEMOGLOBIN CONCENTRATION,[2],40.03 G/DL
same,MEAN CORPUSCULAR VOLUME,[2],60.63 fL
same,MONOCYTE,[2],0.67%
same,NEUTROPHIL,[2],5.67%
same,NUCLEATED RED BLOOD CELLS,[2],0.33 /100WBC
same,PLATELET COUNT,[2],1117 x10E3/uL
same,ALANINE AMINOTRANSFERASE,[2],57.33 u/L
same,ALBUMIN,[2],4.23 G/DL
same,ALKALINE PHOSPHATASE,[2],373.33 u/L
same,ASPARTATE AMINOTRANSFERASE,[2],85.33 u/L
same,BLOOD UREA NITROGEN,[2],15.67 mg/dL
same,CARBON DIOXIDE,[2],23.33 mmol/L
same,CHLORIDE,[2],105 MEQ/L
same,CHOLESTEROL,[2],58.67 mg/dL
same,CREATINE PHOSPHOKINASE,[2],240.33 u/L
same,CREATININE,[2],0.22 mg/dL
same,GLUCOSE,[2],160.33 mg/dL
same,LACTATE DEHYDROGENASE,[2],156.67 u/L
same,LIPASE,[2],9.33 u/L
same,PHOSPHORUS,[2],12.1 mg/dL
same,POTASSIUM,[2],7.18 MEQ/L
same,SODIUM,[2],146.47 MEQ/L
same,TOTAL BILIRUBIN,[2],0.2 mg/dL
same,TOTAL PROTEIN,[2],5.97 G/DL
same,URIC ACID,[2],1.9 mg/dL
same,ABSOLUTE BASOPHIL,[3],0 CELLS/uL
same,ABSOLUTE EOSINOPHIL,[3],0 CELLS/uL
same,ABSOLUTE LYMPHOCYTE,[3],12475.33 CELLS/uL
same,ABSOLUTE MONOCYTE,[3],43.67 CELLS/uL
same,ABSOLUTE SEGMENTED NEUTROPHIL,[3],1014.33 CELLS/uL
same,BASOPHIL,[3],0%
same,EOSINOPHIL,[3],0%
same,ERYTHROCYTE COUNT,[3],5.28 x10E6/uL
same,HEMATOCRIT,[3],33.83%
same,HEMOGLOBIN,[3],13.6 G/DL
same,LEUKOCYTE COUNT,[3],13.53 x10E3/uL
same,LYMPHOCYTE,[3],92%
same,MEAN CORPUSCULAR HEMOGLOBIN,[3],25.87 pg
same,MEAN CORPUSCULAR HEMOGLOBIN CONCENTRATION,[3],40.23 G/DL
same,MEAN CORPUSCULAR VOLUME,[3],64.27 fL
same,MONOCYTE,[3],0.33%
same,NEUTROPHIL,[3],7.67%
same,NUCLEATED RED BLOOD CELLS,[3],0.33 /100WBC
same,PLATELET COUNT,[3],1168 x10E3/uL
same,ALANINE AMINOTRANSFERASE,[3],71.67 u/L
same,ALBUMIN,[3],4.33 G/DL
same,ALKALINE PHOSPHATASE,[3],451.33 u/L
same,ASPARTATE AMINOTRANSFERASE,[3],104.67 u/L
same,BLOOD UREA NITROGEN,[3],12 mg/dL
same,CARBON DIOXIDE,[3],29.33 mmol/L
same,CHLORIDE,[3],100.67 MEQ/L
same,CHOLESTEROL,[3],60.33 mg/dL
same,CREATINE PHOSPHOKINASE,[3],400 u/L
same,CREATININE,[3],0.19 mg/dL
same,GLUCOSE,[3],163.67 mg/dL
same,LACTATE DEHYDROGENASE,[3],208.67 u/L
same,LIPASE,[3],9.67 u/L
same,PHOSPHORUS,[3],12.3 mg/dL
same,POTASSIUM,[3],6.63 MEQ/L
same,SODIUM,[3],146.5 MEQ/L
same,TOTAL BILIRUBIN,[3],0.17 mg/dL
same,TOTAL PROTEIN,[3],5.7 G/DL
same,URIC ACID,[3],1.9 mg/dL
same,ABSOLUTE BASOPHIL,[4],0 CELLS/uL
same,ABSOLUTE EOSINOPHIL,[4],0 CELLS/uL
same,ABSOLUTE LYMPHOCYTE,[4],14800.33 CELLS/uL
same,ABSOLUTE MONOCYTE,[4],0 CELLS/uL
same,ABSOLUTE SEGMENTED NEUTROPHIL,[4],966.33 CELLS/uL
same,BASOPHIL,[4],0%
same,EOSINOPHIL,[4],0%
same,ERYTHROCYTE COUNT,[4],5.99 x10E6/uL
same,HEMATOCRIT,[4],36.1%
same,HEMOGLOBIN,[4],14.47 G/DL
same,LEUKOCYTE COUNT,[4],15.77 x10E3/uL
same,LYMPHOCYTE,[4],93.67%
same,MEAN CORPUSCULAR HEMOGLOBIN,[4],24.2 pg
same,MEAN CORPUSCULAR HEMOGLOBIN CONCENTRATION,[4],40.07 G/DL
same,MEAN CORPUSCULAR VOLUME,[4],60.33 fL
same,MONOCYTE,[4],0%
same,NEUTROPHIL,[4],6.33%
same,NUCLEATED RED BLOOD CELLS,[4],0 /100WBC
same,PLATELET COUNT,[4],1290.67 x10E3/uL
same,ALANINE AMINOTRANSFERASE,[4],58.33 u/L
same,ALBUMIN,[4],4.4 G/DL
same,ALKALINE PHOSPHATASE,[4],432 u/L
same,ASPARTATE AMINOTRANSFERASE,[4],93.33 u/L
same,BLOOD UREA NITROGEN,[4],12.33 mg/dL
same,CARBON DIOXIDE,[4],21.67 mmol/L
same,CHLORIDE,[4],103.33 MEQ/L
same,CHOLESTEROL,[4],77.67 mg/dL
same,CREATINE PHOSPHOKINASE,[4],239.67 u/L
same,CREATININE,[4],0.28 mg/dL
same,GLUCOSE,[4],161 mg/dL
same,LACTATE DEHYDROGENASE,[4],157.67 u/L
same,LIPASE,[4],10 u/L
same,PHOSPHORUS,[4],11.27 mg/dL
same,POTASSIUM,[4],6.7 MEQ/L
same,SODIUM,[4],144.17 MEQ/L
same,TOTAL BILIRUBIN,[4],0.13 mg/dL
same,TOTAL PROTEIN,[4],6.23 G/DL
same,URIC ACID,[4],1.93 mg/dL
